Test results reported in article PMC7911614, “Development and Characterization of a Tacrolimus/Hydroxypropyl-β-Cyclodextrin Eye Drop” (Pharmaceutics, 2021).
≈ marks a conversion by molar mass, not a printed value. Where two headings read alike, the source gives them in different places.

Columns and labels:
[1] = parameters: method as in PMID 29751694; conditions: cited from earlier work
[2] = parameters: method as in PMID 32599134, PMID 24015381; conditions: cited from earlier work
[3] = physchem; assay type: physicochemical
Method: A phase solubility diagram was used to estimate the stability constant (K) of the tacrolimus/HPβCD inclusion complex. The solubility measurements were carried out following the previous work of our research group, described by Anguiano-Igea et al.. This protocol was adjusted to the Higuchi and Connors phase solubility model. A solubility study was carried out by adding an excess amount of the tacrolimus powder to MilliQ® aqueous solutions containing increasing concentrations of HPβCD (from 0 to 400 mg/mL). The vials containing these suspensions were then shaken in a VWR incubated mini-shaker (VWR International, Radnor, PA, USA) at 25 °C and 250 rpm for 7 days until reaching an equilibrium. […]
Tacrolimus concentration was determined for each sample using an HPLC system (Agilent 1260 series; Agilent Technologies®, Santa Clara, CA, USA) equipped with a Diode Array Detector HS, a solvent delivery quaternary pump system, 400 bar maximum pressure and an autosampler. […] A 210-nm wavelength was employed for the tacrolimus quantification. […]
These constants values were calculated using the following Equation (1):S = S0 +(K1:1·S0 + K1:1·K1:2·S0·[HPβCD])·[HPβCD],(1) where S is the total solubility, S0 is the free drug solubility and K1:1 and K1:2 are the stability constants of the complex tacrolimus/HPβCD. […]

[4] = NMR saturation transfer difference (STD) study of tacrolimus/HPβCD binding; conditions: D2O, read-out: Kd of tacrolimus/HPβCD binding equilibrium
Method: NMR experiments were conducted at two different temperature conditions, 278 and 298 K, on a Bruker NEO 17.6 T spectrometer (proton resonance 750 MHz) (Billerica, MA, USA), equipped with a ^1H/^13C/^15N triple resonance PA-TXI probe with a deuterium lock channel and a shielded Pulse Field Gradient (PFG) z-gradient. The spectrometer control software was TopSpin 4.0 (Billerica, MA, USA, 2020). The reported chemical shifts are referenced to the lock deuterium solvent. Spectra were processed and analyzed using Mestrenova v14.0 software (Mestrelab Research S.L., Santiago de Compostela, Spain, 2019).
One-dimensional saturation transfer difference ^1H spectra (STD) were measured. The experiment consisted of a selective saturation pulse train, a WET selective solvent suppression module and a 90-degree hard-pulse followed by fid (free induction decay) acquisition. The selective saturation consisted of a train of soft Gaussian-shaped pulses of 50-ms duration with a 1-ms interpulse delay. The selective saturation was applied during 2 s at a specific frequency of the ^1H spectrum, covering a region of the spectrum of ± 125 Hz around the chosen frequency (i.e., ± 0.17 ppm in a 750 spectrometer). The STD^off saturation was applied at 20 ppm. […] The STD^on and STD^off scans were measured in alternate scans and subtracted by the phase cycling, providing the subtracted STD^off-on spectra. […]

[5] = test system: T cell proliferation; parameters: method as in PMID 22511024; conditions: cited from earlier work

| K1:2 stability constant of tacrolimus/HPβCD complex [3] [M⁻¹] | solubility at 7 days [3] [µg/mL] | Kd ([4]; 278 K, inferred from STD response) [mM] | Kd ([4]; 298 K, inferred from absence of STD response) [mM] | SMILES | surface tension in solution [1] | water solubility [2] [µg/mL] | immunosuppressive activity, times more potent than cyclosporine A [5] [times] |
| --- | --- | --- | --- | --- | --- | --- | --- |
| – | – | – | – | CC(O)COC[C@H]1O[C@@H]2O[C@H]3[C@H](O)[C@@H](O)[C@@H](O[C@H]4[C@H](O)[C@@H](O)[C@@H](O[C@H]5[C@H](O)[C@@H](O)[C@@H](O[C@H]6[C@H](O)[C@@H](O)[C@@H](O[C@H]7[C@H](O)[C@@H](O)[C@@H](O[C@H]8[C@H](O)[C@@H](O)[C@@H](O[C@H]1[C@H](O)[C@H]2O)O[C@@H]8COCC(C)O)O[C@@H]7COCC(C)O)O[C@@H]6COCC(C)O)O[C@@H]5COCC(C)O)O[C@@H]4COCC(C)O)O[C@@H]3COCC(C)O (stereo partly drawn) [HPβCD, 2-hydroxypropyl-β-cyclodextrin] | 54.8–57.5 mN/m | – | – |
| 2.1 ± 0.6 | 4 ± 0.67 (≈ 4.97 µM) | < 1 | > 10 | C=CC[C@@H]1/C=C(\C)C[C@H](C)C[C@H](OC)[C@H]2O[C@@](O)(C(=O)C(=O)N3CCCC[C@H]3C(=O)O[C@H](/C(C)=C/[C@@H]3CC[C@@H](O)[C@H](OC)C3)[C@H](C)[C@@H](O)CC1=O)[C@H](C)C[C@@H]2OC [Tacrolimus] | – | 1 to 12 | 100 |
